From ChEMBL document CHEMBL3808348, “Rational Design, Synthesis, and Biological Evaluation of 7-Azaindole Derivatives as Potent Focused Multi-Targeted Kinase Inhibitors” (J Med Chem, 2016)

Tests used:
Bcr/Abl fusion protein = Bcr/Abl fusion protein (Homo sapiens, UniProt P00519); type: cell-based, BaF3
Description: Inhibition of human wild type BCR-ABL expressed in mouse BAF3 cells assessed as inhibition of cell proliferation after 72 hrs by MTT assay

[1] = Antiproliferative activity against human BxPC3 cells after 72 hrs by MTT assay; type: functional, cell-based; conditions: BXPC-3, 72 h
[2] = Cmax in Swiss mouse plasma at 2 mg/kg, iv by LC/MS/MS analysis; type: ADME, organism-based; set-up: dose 2 mg/kg, route intravenous
[3] = Tmax in Swiss mouse plasma at 20 mg/kg, po by LC/MS/MS analysis; type: ADME, organism-based
hERG (KCNH2) = hERG (KCNH2) (Homo sapiens, UniProt Q12809); test: Inhibition of human ERG expressed in HEK293 cells at 30 uM by patch clamp assay; type: cell-based; conditions: HEK293 cells expressing human ERG
PBMC = test: Hematotoxicity in human PHA/IL2-stimulated PBMC; type: cell-based
[4] = test system: Tyrosine-protein kinase ABL1 (Homo sapiens), P00519 [E255K]; test: Inhibition of His-tagged full length human recombinant ABL E255K mutant expressed in baculovirus using Fluorescein-Poly GT as substrate at 100 nM
[5] = test system: Tyrosine-protein kinase ABL1 (Homo sapiens), P00519 [Y253F]; test: Inhibition of His-tagged full length human recombinant ABL Y253F mutant expressed in baculovirus using Fluorescein-Poly GT as substrate at 100 nM
[6] = molecular target: Tyrosine-protein kinase Blk (Homo sapiens) (UniProt P51451); test: Inhibition of His-tagged full length human recombinant BLK expressed in baculovirus using Fluorescein-Poly GT as substrate at 100 nM
[7] = molecular target: Ephrin type-B receptor 2 (Homo sapiens) (UniProt P29323); test: Inhibition of GST-tagged human recombinant EPHB2 (616 to 884 residues) expressed in baculovirus using Fluorescein-Poly GT as substrate at 100 nM
[8] = test system: Serine/threonine-protein kinase B-raf (Homo sapiens), P15056 [V600E]; test: Inhibition of full length GST-tagged human recombinant BRAF V600E mutant expressed in baculovirus using Fluorescein-MAP2K1 as substrate at 100 nM
[9] = molecular target: Tyrosine-protein kinase Lyn (Homo sapiens, UniProt P07948); test: Inhibition of GST-tagged full length human recombinant LYNA expressed in baculovirus using Fluorescein-Poly GT as substrate
[10] = molecular target: Tyrosine-protein kinase Yes (Homo sapiens, UniProt P07947); test: Inhibition of GST-tagged full length human recombinant YES expressed in baculovirus using Fluorescein-Poly GT as substrate
[11] = molecular target: Tyrosine-protein kinase ABL1 (Homo sapiens, UniProt P00519, Y253F); test: Inhibition of His-tagged full length human recombinant ABL Y253F mutant expressed in baculovirus using Fluorescein-Poly GT as substrate
[12] = molecular target: Tyrosine-protein kinase ABL1 (Homo sapiens, UniProt P00519); test: Inhibition of His-tagged full length human recombinant wild type ABL expressed in baculovirus using Fluorescein-Poly GT as substrate
[13] = molecular target: T1, Platelet-derived growth factor receptor alpha (Homo sapiens, UniProt P16234); test: Inhibition of full length GST-tagged human recombinant PDGFRalpha expressed in baculovirus using Fluorescein-Poly GT as substrate at 100 nM
[14] = Antiangiogenic activity in HRMEC after 72 hrs by MTT assay; type: functional, Homo sapiens
HT-29 = test: Antiproliferative activity against human HT-29 cells after 72 hrs by MTT assay; type: functional, cell-based; conditions: HT-29, 72 h
[15] = molecular target: Myotonin-protein kinase (Homo sapiens) (UniProt Q09013); conditions: 100 nM
Description: Inhibition of full length GST-tagged human recombinant DMPK expressed in baculovirus expression system at 100 nM

[16] = molecular target: Tyrosine-protein kinase Tec (Homo sapiens) (UniProt P42680); conditions: 100 nM
Description: Inhibition of His-tagged full length human recombinant TEC expressed in baculovirus using Fluorescein-Poly GT as substrate at 100 nM

[17] = molecular target: Tyrosine-protein kinase receptor TYRO3 (Homo sapiens) (UniProt Q06418); conditions: 100 nM
Description: Inhibition of GST-tagged human recombinant TYRO3 (451 to 890 residues) expressed in baculovirus using Fluorescein-Poly GT as substrate at 100 nM

[18] = molecular target: Vascular endothelial growth factor receptor 3 (Homo sapiens) (UniProt P35916); conditions: 100 nM
Description: Inhibition of GST-tagged human recombinant VEGFR3 (800 to 1297 residues) expressed in baculovirus using Fluorescein-Poly GT as substrate at 100 nM

[19] = molecular target: Tyrosine-protein kinase ZAP-70 (Homo sapiens) (UniProt P43403); conditions: 100 nM
Description: Inhibition of His-tagged full length human recombinant ZAP70 expressed in baculovirus using Fluorescein-Poly GT as substrate at 100 nM

[20] = molecular target: Macrophage colony-stimulating factor 1 receptor (Homo sapiens) (UniProt P07333); conditions: 100 nM
Description: Inhibition of His-tagged human recombinant CSF1R (538 to 910 residues) expressed in baculovirus using Fluorescein-Poly GT as substrate at 100 nM

[21] = molecular target: Tyrosine-protein kinase Fyn (Homo sapiens, UniProt P06241); conditions: 100 nM
Description: Inhibition of His-tagged full length human recombinant FYN expressed in baculovirus using Fluorescein-Poly GT as substrate at 100 nM

[22] = molecular target: Mitogen-activated protein kinase 14 (Homo sapiens) (UniProt Q16539); conditions: 100 nM
Description: Inhibition of GST-tagged full length human recombinant p38alpha expressed in Escherichia coli using Fluorescein-Poly GT as substrate at 100 nM

[23] = molecular target: T1, Platelet-derived growth factor receptor alpha; conditions: 100 nM
Description: Inhibition of GST-tagged human recombinant PDGFRalpha (550 to 1089 residues) expressed in baculovirus using Fluorescein-Poly GT as substrate at 100 nM

[24] = molecular target: Aurora kinase A (Homo sapiens) (UniProt O14965); conditions: 100 nM
Description: Inhibition of full length His-tagged human recombinant Aurora A expressed in baculovirus using Fluorescein-CREBtide as substrate at 100 nM

[25] = molecular target: Aurora kinase B (Homo sapiens) (UniProt Q96GD4); conditions: 100 nM
Description: Inhibition of full length His-tagged human recombinant Aurora B expressed in baculovirus using Fluorescein-CREBtide as substrate at 100 nM

[26] = molecular target: Tyrosine-protein kinase receptor UFO (Homo sapiens) (UniProt P30530); conditions: 100 nM
Description: Inhibition of full length His-tagged human recombinant AXL expressed in insect expression system using Fluorescein-Poly GT as substrate at 100 nM

[27] = molecular target: Serine/threonine-protein kinase Chk2 (Homo sapiens) (UniProt O96017); conditions: 100 nM
Description: Inhibition of His-tagged human recombinant CHK2 expressed in baculovirus using Fluorescein-CREBtide as substrate at 100 nM

[28] = molecular target: Cyclin-dependent kinase 1/cyclin B1 (Homo sapiens) (UniProt P06493+P14635); conditions: 100 nM
Description: Inhibition of CDK1/cyclinB (unknown origin) at 100 nM

[29] = molecular target: CDK7/Cyclin H/MNAT1 (Homo sapiens) (UniProt P51946+P50613+P51948); conditions: 100 nM
Description: Inhibition of CDK7/cyclinH/MNAT1 (unknown origin) at 100 nM

[30] = molecular target: Tyrosine-protein kinase Mer (Homo sapiens) (UniProt Q12866); conditions: 100 nM
Description: Inhibition of GST-tagged human recombinant cMER expressed in baculovirus using Fluorescein-Poly GT as substrate at 100 nM

[31] = molecular target: Hepatocyte growth factor receptor (Homo sapiens) (UniProt P08581); conditions: 100 nM
Description: Inhibition of GST-tagged human recombinant cMET (956 to 1390 residues) expressed in baculovirus using Fluorescein-Poly GT as substrate at 100 nM

[32] = molecular target: Glycogen synthase kinase-3 beta (Homo sapiens) (UniProt P49841); conditions: 100 nM
Description: Inhibition of GSK3B (unknown origin) at 100 nM

[33] = molecular target: Platelet-derived growth factor receptor beta (Homo sapiens) (UniProt P09619); conditions: 100 nM
Description: Inhibition of His-tagged human recombinant PDGFRbeta (558 to 1106 residues) expressed in baculovirus using Fluorescein-Poly GT as substrate at 100 nM

[34] = molecular target: Phosphatidylinositol 4,5-bisphosphate 3-kinase catalytic subunit alpha isoform (Homo sapiens) (UniProt P42336); conditions: 100 nM
Description: Inhibition of PI3Kalpha (unknown origin) at 100 nM

[35] = molecular target: Serine/threonine-protein kinase pim-1 (Homo sapiens) (UniProt P11309); conditions: 100 nM
Description: Inhibition of His-tagged full length human recombinant PIM1 expressed in baculovirus using Fluorescein-CREBtide as substrate at 100 nM

[36] = molecular target: Protein kinase C alpha type (Homo sapiens) (UniProt P17252); conditions: 100 nM
Description: Inhibition of full length human recombinant PKCalpha expressed in baculovirus using Fluorescein-PKC as substrate at 100 nM

[37] = molecular target: Testis-specific serine/threonine-protein kinase 2 (Homo sapiens) (UniProt Q96PF2); conditions: 100 nM
Description: Inhibition of His-tagged full length human recombinant TSSK2 expressed in baculovirus at 100 nM

[38] = molecular target: Non-receptor tyrosine-protein kinase TYK2 (Homo sapiens) (UniProt P29597); conditions: 100 nM
Description: Inhibition of GST-tagged human recombinant TYK2 (832 to 1187 residues) expressed in baculovirus using Fluorescein-Poly GT as substrate at 100 nM

T1 sequence (P16234 whole entry): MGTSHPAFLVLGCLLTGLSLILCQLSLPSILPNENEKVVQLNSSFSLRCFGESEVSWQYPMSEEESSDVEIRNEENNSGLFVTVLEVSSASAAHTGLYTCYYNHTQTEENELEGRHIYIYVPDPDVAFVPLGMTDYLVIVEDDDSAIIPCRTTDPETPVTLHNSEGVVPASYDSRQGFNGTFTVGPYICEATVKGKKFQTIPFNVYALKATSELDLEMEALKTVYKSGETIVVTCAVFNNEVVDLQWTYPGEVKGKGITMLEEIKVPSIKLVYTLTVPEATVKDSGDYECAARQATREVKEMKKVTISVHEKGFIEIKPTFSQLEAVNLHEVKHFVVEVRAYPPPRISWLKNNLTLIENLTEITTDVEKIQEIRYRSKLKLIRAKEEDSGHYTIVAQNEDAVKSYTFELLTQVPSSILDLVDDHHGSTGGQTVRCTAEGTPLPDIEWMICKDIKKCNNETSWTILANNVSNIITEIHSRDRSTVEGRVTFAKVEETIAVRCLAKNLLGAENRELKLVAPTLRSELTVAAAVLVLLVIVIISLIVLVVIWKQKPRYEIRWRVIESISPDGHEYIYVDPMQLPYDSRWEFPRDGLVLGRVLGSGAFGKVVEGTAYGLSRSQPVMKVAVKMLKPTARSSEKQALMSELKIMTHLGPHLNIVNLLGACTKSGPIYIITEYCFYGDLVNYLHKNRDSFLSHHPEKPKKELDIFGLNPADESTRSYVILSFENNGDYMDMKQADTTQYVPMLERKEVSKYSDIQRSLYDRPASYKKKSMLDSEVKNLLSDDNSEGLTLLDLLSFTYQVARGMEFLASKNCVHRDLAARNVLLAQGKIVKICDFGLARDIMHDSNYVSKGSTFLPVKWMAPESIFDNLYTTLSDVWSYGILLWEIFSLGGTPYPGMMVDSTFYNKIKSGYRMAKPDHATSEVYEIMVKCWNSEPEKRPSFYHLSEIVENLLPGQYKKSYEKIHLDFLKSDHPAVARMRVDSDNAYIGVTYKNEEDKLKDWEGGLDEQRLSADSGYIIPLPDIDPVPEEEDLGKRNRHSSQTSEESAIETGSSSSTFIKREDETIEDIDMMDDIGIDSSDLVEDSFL
Sequence of Tyrosine-protein kinase Mer (Homo sapiens) (Q12866 whole entry): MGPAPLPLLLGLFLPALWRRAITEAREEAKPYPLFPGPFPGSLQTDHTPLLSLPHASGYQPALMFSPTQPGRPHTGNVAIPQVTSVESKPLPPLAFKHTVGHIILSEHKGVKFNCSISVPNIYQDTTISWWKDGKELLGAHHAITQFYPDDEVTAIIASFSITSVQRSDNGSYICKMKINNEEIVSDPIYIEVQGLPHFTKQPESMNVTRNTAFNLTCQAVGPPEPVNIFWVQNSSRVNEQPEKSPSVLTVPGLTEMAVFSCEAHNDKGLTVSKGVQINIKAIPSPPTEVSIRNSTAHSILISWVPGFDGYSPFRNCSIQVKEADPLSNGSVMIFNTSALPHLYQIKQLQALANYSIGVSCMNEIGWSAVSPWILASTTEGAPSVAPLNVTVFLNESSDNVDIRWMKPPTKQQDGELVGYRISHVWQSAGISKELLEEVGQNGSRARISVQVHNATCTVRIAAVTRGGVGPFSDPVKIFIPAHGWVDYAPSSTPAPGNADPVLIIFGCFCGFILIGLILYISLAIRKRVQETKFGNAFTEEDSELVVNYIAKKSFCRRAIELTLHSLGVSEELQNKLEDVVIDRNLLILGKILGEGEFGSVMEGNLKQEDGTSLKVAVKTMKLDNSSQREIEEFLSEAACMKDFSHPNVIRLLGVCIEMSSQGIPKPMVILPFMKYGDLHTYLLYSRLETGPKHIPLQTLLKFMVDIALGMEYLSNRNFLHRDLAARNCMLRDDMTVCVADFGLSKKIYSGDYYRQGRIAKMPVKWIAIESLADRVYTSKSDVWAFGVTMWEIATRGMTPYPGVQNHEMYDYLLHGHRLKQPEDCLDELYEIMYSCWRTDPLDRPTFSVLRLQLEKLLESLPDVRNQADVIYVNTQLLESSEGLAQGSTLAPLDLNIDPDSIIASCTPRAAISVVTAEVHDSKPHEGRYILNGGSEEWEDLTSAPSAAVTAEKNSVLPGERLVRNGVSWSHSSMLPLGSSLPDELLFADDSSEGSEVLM
Sequence of Aurora kinase B (Homo sapiens) (Q96GD4 whole entry): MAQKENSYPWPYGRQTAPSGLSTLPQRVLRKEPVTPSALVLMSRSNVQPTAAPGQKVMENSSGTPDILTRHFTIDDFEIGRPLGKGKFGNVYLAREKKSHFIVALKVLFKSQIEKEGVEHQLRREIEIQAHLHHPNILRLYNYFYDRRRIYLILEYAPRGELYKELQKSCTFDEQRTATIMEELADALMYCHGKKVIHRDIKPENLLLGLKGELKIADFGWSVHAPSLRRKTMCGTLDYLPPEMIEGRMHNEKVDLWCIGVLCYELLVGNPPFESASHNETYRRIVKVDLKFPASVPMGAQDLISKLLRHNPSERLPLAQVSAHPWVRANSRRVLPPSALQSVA
Sequence of Phosphatidylinositol 4,5-bisphosphate 3-kinase catalytic subunit alpha isoform (Homo sapiens) (P42336 whole entry, canonical isoform): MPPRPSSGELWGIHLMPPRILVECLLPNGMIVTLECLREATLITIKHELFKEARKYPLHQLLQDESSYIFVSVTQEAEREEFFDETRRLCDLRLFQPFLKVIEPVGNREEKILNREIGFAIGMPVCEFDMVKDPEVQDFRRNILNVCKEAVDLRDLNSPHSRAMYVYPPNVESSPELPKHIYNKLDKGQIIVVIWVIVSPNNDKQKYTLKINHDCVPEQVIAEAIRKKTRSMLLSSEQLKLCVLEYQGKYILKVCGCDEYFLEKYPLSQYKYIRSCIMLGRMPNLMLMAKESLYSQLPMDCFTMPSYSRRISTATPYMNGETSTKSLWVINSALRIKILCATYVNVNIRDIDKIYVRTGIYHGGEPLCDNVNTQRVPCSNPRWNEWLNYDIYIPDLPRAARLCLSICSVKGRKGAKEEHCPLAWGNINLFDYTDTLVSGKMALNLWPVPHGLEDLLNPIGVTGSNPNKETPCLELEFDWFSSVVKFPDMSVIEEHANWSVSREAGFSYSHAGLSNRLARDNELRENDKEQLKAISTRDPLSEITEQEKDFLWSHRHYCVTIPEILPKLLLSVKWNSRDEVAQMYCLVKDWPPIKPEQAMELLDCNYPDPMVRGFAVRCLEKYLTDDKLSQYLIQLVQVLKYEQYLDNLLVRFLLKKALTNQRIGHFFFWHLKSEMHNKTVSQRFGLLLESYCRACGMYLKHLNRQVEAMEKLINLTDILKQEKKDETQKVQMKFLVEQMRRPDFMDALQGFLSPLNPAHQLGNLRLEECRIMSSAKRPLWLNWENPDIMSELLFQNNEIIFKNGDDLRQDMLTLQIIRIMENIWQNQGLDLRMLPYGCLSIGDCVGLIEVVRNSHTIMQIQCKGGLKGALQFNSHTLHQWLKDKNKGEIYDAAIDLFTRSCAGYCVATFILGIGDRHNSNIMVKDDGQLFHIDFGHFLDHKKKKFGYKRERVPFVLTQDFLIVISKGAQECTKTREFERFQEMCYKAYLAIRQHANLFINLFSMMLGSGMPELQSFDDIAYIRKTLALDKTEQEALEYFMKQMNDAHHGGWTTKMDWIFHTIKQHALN
Sequence of Tyrosine-protein kinase Blk (Homo sapiens) (P51451 2-505 limits assumed): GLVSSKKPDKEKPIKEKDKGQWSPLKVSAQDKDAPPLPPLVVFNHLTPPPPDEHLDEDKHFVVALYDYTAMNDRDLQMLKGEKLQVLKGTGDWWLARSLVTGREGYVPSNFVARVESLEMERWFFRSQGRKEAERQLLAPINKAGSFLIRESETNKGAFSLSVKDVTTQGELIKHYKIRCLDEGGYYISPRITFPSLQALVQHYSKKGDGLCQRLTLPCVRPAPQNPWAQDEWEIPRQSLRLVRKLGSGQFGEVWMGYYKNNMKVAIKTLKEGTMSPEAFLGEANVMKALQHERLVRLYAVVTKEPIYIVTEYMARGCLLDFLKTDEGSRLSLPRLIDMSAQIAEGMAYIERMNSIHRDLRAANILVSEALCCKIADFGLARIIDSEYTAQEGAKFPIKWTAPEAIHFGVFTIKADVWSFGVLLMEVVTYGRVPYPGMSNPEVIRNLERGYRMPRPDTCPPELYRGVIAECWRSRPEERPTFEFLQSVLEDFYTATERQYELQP
Sequence of Tyrosine-protein kinase receptor UFO (Homo sapiens) (P30530 whole entry): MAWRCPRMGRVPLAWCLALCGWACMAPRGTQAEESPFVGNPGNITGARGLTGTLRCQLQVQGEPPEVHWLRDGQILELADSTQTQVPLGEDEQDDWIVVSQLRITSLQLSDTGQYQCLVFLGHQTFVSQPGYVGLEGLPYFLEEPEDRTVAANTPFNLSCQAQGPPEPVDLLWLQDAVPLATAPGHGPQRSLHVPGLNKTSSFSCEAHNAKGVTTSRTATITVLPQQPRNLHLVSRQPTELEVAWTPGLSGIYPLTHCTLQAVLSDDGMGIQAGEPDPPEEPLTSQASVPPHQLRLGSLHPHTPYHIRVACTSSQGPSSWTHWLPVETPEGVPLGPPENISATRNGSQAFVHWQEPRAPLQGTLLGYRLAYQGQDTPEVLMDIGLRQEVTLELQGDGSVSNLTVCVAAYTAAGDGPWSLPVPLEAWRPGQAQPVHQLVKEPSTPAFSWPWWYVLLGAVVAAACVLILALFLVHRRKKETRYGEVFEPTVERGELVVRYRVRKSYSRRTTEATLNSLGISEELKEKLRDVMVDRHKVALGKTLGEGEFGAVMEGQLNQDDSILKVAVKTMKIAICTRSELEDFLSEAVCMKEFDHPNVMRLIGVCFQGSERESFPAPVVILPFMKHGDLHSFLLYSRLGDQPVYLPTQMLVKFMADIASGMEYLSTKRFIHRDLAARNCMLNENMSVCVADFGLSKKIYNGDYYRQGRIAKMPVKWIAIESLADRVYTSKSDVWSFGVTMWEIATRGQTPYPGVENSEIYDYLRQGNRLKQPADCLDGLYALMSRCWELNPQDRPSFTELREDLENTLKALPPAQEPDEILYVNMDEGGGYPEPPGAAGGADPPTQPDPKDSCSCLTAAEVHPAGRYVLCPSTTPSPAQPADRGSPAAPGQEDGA

SMILES: COC(=O)c1cc2cc(NCc3cc(NC(=O)c4cc(-n5cnc(C)c5)cc(C(F)(F)F)c4)ccc3C)cnc2[nH]1
- EC50 (Bcr/Abl fusion protein): 0.04 nM
- EC50 [1]: 35 nM
- Cmax [2]: 853 ng/mL
- Tmax [3]: 30 min
- inhibition at 30 µM (hERG (KCNH2)): 26%
- EC50 (PBMC): 1200 nM
- inhibition [4]: > 80%
- inhibition [5]: > 80%
- inhibition [6]: > 80%
- inhibition [7]: > 80%
- inhibition [8]: > 80%
- IC50 [9]: 37 nM
- IC50 [10]: 44 nM
- IC50 [11]: 51 nM
- IC50 [12]: 6 nM
- inhibition [13]: 68%
- EC50 [14]: 62 nM
- EC50 (HT-29): 37 nM
- inhibition [15]: < 40%
- inhibition [16]: < 40%
- inhibition [17]: < 40%
- inhibition [18]: < 40%
- inhibition [19]: < 40%
- inhibition [20]: < 40%
- inhibition [21]: < 40%
- inhibition [22]: < 40%
- inhibition [23]: < 40%
- inhibition [24]: < 40%
- inhibition [25]: < 40%
- inhibition [26]: < 40%
- inhibition [27]: < 40%
- inhibition [28]: < 40%
- inhibition [29]: < 40%
- inhibition [30]: < 40%
- inhibition [31]: < 40%
- inhibition [32]: < 40%
- inhibition [33]: < 40%
- inhibition [34]: < 40%
- inhibition [35]: < 40%
- inhibition [36]: < 40%
- inhibition [37]: < 40%
- inhibition [38]: < 40%
